Measured values reported in patent US10765625B2, “Knottin-drug conjugates and methods of using the same” (THE BOARD OF TRUSTEES OF THE LELAND STANFORD JUNIOR …, priority 2016, dated 2020).
Read-outs that look alike come from different tables or passages of the source.

How the values were obtained:
U87MG cells [1] = assay: Integrin-blocking competition: cell proliferation (CCK-8) after pre-treatment with EETI-2.5F (1); type: cell-based; conditions: 1 μM 1, 3 h pre-treatment and co-treatment
Method: (§1) U87MG, and PANC-1 cells were grown in Dulbecco's Modified Eagle Medium (DMEM) with 10% fetal bovine serum (FBS) and 1% penicillin/streptomycin. MDA-MB-468 cells were grown in DMEM and Ham's F-12 medium (DMEM/F12) with 10% FBS and 1% penicillin/streptomycin. A2780 and BxPC3 cells were grown in Roswell Park Memorial Institute medium (RPMI) 1640+L-glutamine, with 10% FBS and 1% penicillin/streptomycin. D270 cells were grown in MEM (Richter's modification, no phenol red) with 10% FBS and 0.1% Gentamicin. Unless otherwise specified, cells were incubated at 37° C., 5% CO2. Flow cytometry was performed using an EMD Millpore Guava EasyCyte 8HT flow cytometer and the resulting data were evaluated using FlowJo software provided by TreeStar, Inc. Cell proliferation was measured using the Dojindo Cell Counting Kit-8 by replacing the media in each well with 100 μL of media containing 10% WST-8. After incubation for 1 h at 37° C., absorbance, A, at 450 nm was measured with a BioTek Synergy H4 microtiter plate reader. The background signal of CCK-8 alone was subtracted from all samples. Cell proliferation was then expressed as a percentage of absorbance relative to the control of untreated cells (Equation 2). Nonlinear regression analysis was performed using GraphPad Prism.
One possible explanation for the apparent hENT1-independence of 5d is that its route of internalization could be integrin-mediated. The role of integrin-binding in the biological potency and hENT1-independence of 5d was determined. A competition experiment was carried out in which U87MG cells were pre-treated with unconjugated EETI-2.5F (1) in order to block integrins on the cell surface. The role of integrin-binding was studied by measuring the proliferation of U87MG cells that had been pre-treated with EETI-2.5F (1) when exposed to increasing doses of 3 and KDCs 5a, 5c, and 5d. […] Media used to prepare varying concentrations of drug, protein, or protein-drug conjugate also contained 1 μM of 1. Prior to treatment, cells were incubated for 3 h at 37° C., 5% CO2 with fresh media containing 1 μM 1. After this pre-treatment, cells were incubated with varying concentrations of 5a, 5c, or 5d for 24 h and then media was replaced with fresh media and cells were incubated for an additional 48 h. Cell proliferation was measured using the Cell Counting Kit-8 by replacing the media in each well with 100 μL of media containing 10% WST-8. After incubation for 1 h at 37° C., absorbance at 450 nm was measured with a Synergy H4 microtiter plate reader. Cell proliferation was measured according to the method described in Section 1.3. Error bars represent the standard deviation of experiments performed in triplicate.

U87MG cells [2] = assay: Cell proliferation, CCK-8 colorimetric assay; type: cell-based
Method: as §1
Next, the potency of each KDC was tested in a cell-proliferation experiment. […] Cells were seeded in a 96-well plate at a density of 2,500 cells per well and grown overnight at 37° C., 5% CO2 in DMEM with 10% FBS and 1% penicillin/streptomycin. Cells were subsequently treated with 100 μL of fresh media, containing varying concentrations of drug, protein, or protein-drug conjugate and incubated for 4 d at 37° C., 5% CO2. Cell proliferation was measured according to the method described in Section 1.3. Error bars represent the standard deviation of experiments performed in triplicate. […] Given that the linker must be cleaved to release free Gemcitabine in order for the payload to become active, the low potency of 5b can be explained by the greater stability of the carbamate group as compared to the other linkers tested.

U87MG cells [3] = assay: Competition binding assay with AF488-labeled EETI-2.5F (AF488-1), flow cytometry; conditions: competition with 1 nM AF488-1, 4° C., 3 hours, read-out: IC50 (nM), binding affinity
Method: Once the knottin-drug conjugates 5a-d were prepared, their binding affinity to U87MG glioblastoma cells, which are known to have elevated expression of tumor-associated integrins, was tested. […] To measure the relative binding affinities of knottins 1 and 2 and KDCs 5a-d, competition binding assays were performed using AlexaFluor 488-conjugated EETI-2.5F (AF488-1) as previously described (J. W. Kim, et al., J. Am. Chem. Soc. 2015, 137, 6-9). Cells (5×10^4 per sample) were detached with 0.05% Trypsin-EDTA, washed with IBB (25 mM Tris pH 7.4, 150 mM NaCl, 2 mM CaCl2, 1 mM MgCl2, 1 mM MnCl2, and 0.1% bovine serum albumin), and incubated with 1 nM AF488-1 and varying concentrations of competitors in 800 μL of IBB at 4° C. for 3 hours. The cells were washed twice with 800 μL of PBSA (phosphate buffered saline containing 0.1% bovine serum albumin) and the fluorescence of the surface-bound AF488-1 was determined using flow cytometry. The fluorescence was normalized to that of cells treated with AF488-1 alone to obtain the fraction bound. Half-maximal inhibitory concentration (IC50) values were determined by nonlinear regression analysis. Error bars represent the standard deviation of experiments performed in triplicate.

D270 glioblastoma cells = assay: Cell proliferation, CCK-8 colorimetric assay; type: cell-based; conditions: 4 d after treatment, read-out: ED50 (nM), cell growth inhibition
Method: as §1
(§2) Having identified KDC 5d as a potent inhibitor of U87MG cells with desirable payload-release properties, its efficacy against a variety of other cell lines in comparison with Gemcitabine (3) was next tested. Cells were seeded in a 96-well plate at a density of 2,500 cells per well and grown overnight at 37° C., 5% CO2 in the media described in Section 1.3. Cells were subsequently treated with 100 μL of fresh media, containing 50 nM of 3 or 5d. Cells were incubated at 37° C., 5% CO2 for 4 d. Cell proliferation was measured using the Cell Counting Kit-8 by replacing the media in each well with 100 μL of media containing 10% WST-8. After incubation for 1 h at 37° C., absorbance at 450 nm was measured with a Synergy H4 microtiter plate reader. Cell proliferation was measured according to the method described in Section 1.3. Error bars represent the standard deviation of experiments performed in triplicate.

[4] = system: PANC-1 pancreatic cancer cells; assay: Cell proliferation, CCK-8 colorimetric assay; type: cell-based; conditions: 4 d after treatment, read-out: ED50 (nM), cell growth inhibition
Method: as §1, §2

[5] = system: BxPC3 pancreatic cancer cells; assay: Cell proliferation, CCK-8 colorimetric assay; type: cell-based; conditions: 4 d after treatment, read-out: ED50 (nM), cell growth inhibition
Method: as §1, §2

[6] = system: A2780 ovarian cancer cells; assay: Cell proliferation, CCK-8 colorimetric assay; type: cell-based; conditions: 4 d after treatment, read-out: ED50 (nM), cell growth inhibition
Method: as §1, §2

[7] = system: MDA-MB-468 breast cancer cells; assay: Cell proliferation, CCK-8 colorimetric assay; type: cell-based; conditions: 4 d after treatment, read-out: ED50 (nM), cell growth inhibition
Method: as §1, §2

In the case of `CC(C)C[C@@H]1NC(=O)[C@@H]2CSSC[C@@H](C(=O)NCC(=O)O)NC(=O)[C@H](Cc3ccccc3)NC(=O)CNC(=O)[C@H](CC(N)=O)NC(=O)[C@@H]3CCCN3C(=O)CNC(=O)[C@@H]3CSSC[C@H](NC(=O)[C@H]([C@@H](C)O)NC(=O)[C@H](CC(C)C)NC(=O)[C@@H]4CCCN4C(=O)[C@@H]4CCCN4C(=O)[C@H](CC(N)=O)NC(=O)[C@H](CC(=O)O)NC(=O)CNC(=O)[C@H](CCCNC(=N)N)NC(=O)[C@@H]4CCCN4C(=O)[C@H](CCCNC(=N)N)NC(=O)[C@@H]4CCCN4C(=O)[C@@H](NC(=O)CN)CSSC[C@H](NC(=O)CNC(=O)[C@H](C)NC1=O)C(=O)N[C@@H](C(C)C)C(=O)N3)C(=O)N[C@@H](CCCn1cc(CCC(=O)N[C@H](C(=O)N[C@@H](C)C(=O)Nc3ccc(COC(=O)Nc4ccn([C@@H]5O[C@H](CO)[C@@H](O)C5(F)F)c(=O)n4)cc3)C(C)C)nn1)C(=O)N[C@@H](CCC(N)=O)C(=O)N[C@@H](CC(=O)O)C(=O)N[C@@H](CO)C(=O)N[C@@H](CC(=O)O)C(=O)N2` [5d], the “Effect of integrin blocking by pre-treatment with 1 on potency (in words)” value (U87MG cells [1]) is reported as “abolishes the potency”, the “Potency / growth inhibition in U87MG cells (in words)” value (U87MG cells [2]; U87MG cells, 4 d) is reported as “low-nanomolar ED50 values” and the EC50 (U87MG cells [2]; U87MG cells, 4 d incubation, vs untreated control, read-out: ED50 (nM), potency) is reported as 9 ± 1.8 nM. It also gave an EC50 (U87MG cells [2]; U87MG glioblastoma, 4 d after treatment, read-out: ED50 (nM), cell growth inhibition) of 9 ± 1.8 nM, an IC50 (U87MG cells [3]) of 1.5 ± 0.2 nM and an EC50 (D270 glioblastoma cells) of 7.9 ± 0.8 nM. For the same compound, the EC50 [4] was 2.1 ± 0.2 nM, the EC50 [5] was 1.8 ± 0.8 nM and the EC50 [6] was 2.3 ± 0.5 nM. For the same compound, the EC50 [7] was 0.6 ± 0.1 nM.
